Laboratory results taken from patent US10092529B2, “Necrosis inhibitors” (National Institute of Biological Sciences, Beijing, priority 2014, dated 2018).
Like-named read-outs stand apart in the source and are kept apart here.

Experiments:
HT-29 cells = test: Necrosis assay: TNF-α/Smac mimetic/z-VAD induced necrosis, cell viability by CellTiter-Glo; type: cell-based
Protocol: HT-29 cells were cultured in McCoy's 5A culture medium (Invitrogen). On day one, HT-29 cells were plated in 96-well assay plates at density of 2,500-3,500 cells per well. On day two, necrosis were induced by adding 20 ng/ml TNF-α (T), 100 nM Smac mimetic (S), and […] z-VAD (Z). At the same time, […] compound from a chemical library of ˜200,000 compounds was delivered into each well. After 24 hrs treatment, cell viability was determined by measuring ATP level using the CellTiter-Glo Luminescent Cell Viability Assay kit. A CellTiter-Glo Assay (Promega) was performed according to the manufacturer's instructions Luminescence was recorded with a PerkinElmer EnSpire Multimode Plate Reader. Survived cells were normalized to those cells treated with DMSO. Nec-1 was used as a positive control for screening necrosis inhibitors. Data are represented as mean±standard deviation of duplicates.
Dose-dependent inhibition of necrosis by compound #9 and the derivative compounds in HT-29 cells were determined by measuring ATP levels as described above.

[1] = target: hRIP1 kinase (recombinant full-length RIPK1 protein with N-terminal GST-tag) (Homo sapiens (Human), UniProt Q13546); test: Kinase assay of RIPK1 (ADP-Glo); type: biochemical; conditions: for IC50: 161 nM RIPK1, 50 uM ATP, 20 uM MBP, 90 min
Chain of hRIP1 kinase (recombinant full-length RIPK1 protein with N-terminal GST-tag) (Q13546 whole entry): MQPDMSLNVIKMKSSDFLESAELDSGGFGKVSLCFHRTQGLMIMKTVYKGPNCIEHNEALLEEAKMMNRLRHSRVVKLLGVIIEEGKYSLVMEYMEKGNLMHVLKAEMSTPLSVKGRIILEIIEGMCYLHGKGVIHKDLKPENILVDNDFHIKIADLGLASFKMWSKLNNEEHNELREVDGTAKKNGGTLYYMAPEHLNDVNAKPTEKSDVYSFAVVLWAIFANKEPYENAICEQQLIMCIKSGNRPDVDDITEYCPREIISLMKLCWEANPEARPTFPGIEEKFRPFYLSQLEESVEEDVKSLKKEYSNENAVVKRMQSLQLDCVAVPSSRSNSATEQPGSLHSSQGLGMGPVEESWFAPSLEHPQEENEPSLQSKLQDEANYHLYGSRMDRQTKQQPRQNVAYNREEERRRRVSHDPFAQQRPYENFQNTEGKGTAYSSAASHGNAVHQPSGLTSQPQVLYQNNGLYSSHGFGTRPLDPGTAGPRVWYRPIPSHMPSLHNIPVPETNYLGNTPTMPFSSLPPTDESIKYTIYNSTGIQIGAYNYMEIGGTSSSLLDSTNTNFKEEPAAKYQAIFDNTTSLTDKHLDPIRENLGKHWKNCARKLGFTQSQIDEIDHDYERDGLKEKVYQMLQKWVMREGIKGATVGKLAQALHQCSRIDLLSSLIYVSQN
Protocol: Materials: Recombinant full-length RIPK1 protein with N-terminal GST-tag (Cat#R07-34G) was purchased from SignalChem. The ADP-Glo™ kinase assay kit (Cat#V9102) was from Promega. MBP (cat# M2295) protein and all the other chemicals were from Sigma. The 384-well assay plates (Cat#3674, white, opaque) were purchased from Corning.
Kinase activity assay and data analysis: The RIPK1 kinase assay was performed in white 384-well plate. The assay buffer contained 25 mM HEPES (pH7.2), 20 mM MgCl2, 12.5 mM MnCl2, 5 mM EGTA, 2 mM EDTA, 12.5 mM β-glycerol phosphate and 2 mM DTT. RIPK1 was first incubated with compounds or DMSO control for […], then ATP/MBP substrate mixture was added to initiate the reaction. The final concentration of RIPK1 was 161 nM, while the final concentration of ATP was 50 uM, and MBP 20 uM. After 90 min reaction at room temperature, the ADP-Glo reagent and detection solution were added following the technical manual of ADP-Glo™ kinase assay kit (Promega). The luminescence was measured on PerkinElmer Enspire. The data was analyzed using Graphpad Prism (GraphPad Software; www.graphpad.com). The curves were fitted using a non-linear regression model with a sigmoidal dose response.

[2] = Homo sapiens, necrosis induced by TNF-α/Smac mimetic/z-VAD, 24 hrs, ATP level, read-out: Cell viability assay, EC50
[3] = inhibition of necrosis, ATP levels, range given in nM, read-out: EC50 (necrosis activity)
[4] = Homo sapiens, inhibition of necrosis, ATP levels, range given in uM, read-out: EC50 (necrosis activity)
[5] = inhibition of necrosis, ATP levels, range given in uM, read-out: EC50 (necrosis activity)

`CCC(C)(C)C(=O)N1C(=O)CC1c1cccc(N=[N+]=[N-])c1` (stereo not shown) [Compound 25, 4-(3-azidophenyl)-1-(2,2-dimethylbutanoyl)azetidin-2-one] gave an EC50 (HT-29 cells; [2]) of 556 nM, an EC50 (HT-29 cells; [3]) of 1 to 1000 nM and an IC50 [1] of 0.152 µM.

`CCC(C)(C)C(=O)N1CCC1c1ccccc1` (stereo not shown) [Compound 2, 2,2-dimethyl-1-(2-phenylazetidin-1-yl)butan-1-one] was tested, and the EC50 (HT-29 cells; [2]) was 29.6 nM, the EC50 (HT-29 cells; [3]) was 1 to 1000 nM and the IC50 [1] was 0.0348 µM.

In the case of `CCC(C)(C)C(=O)N1C[C@H](O)C[C@H]1c1ccccc1` [Compound 15, 1-((2S,4R)-4-hydroxy-2-phenylpyrrolidin-1-yl)-2,2-dimethylbutan-1-one], the EC50 (HT-29 cells; [2]) is reported as 396 nM, the EC50 (HT-29 cells; [3]) is reported as 1 to 1000 nM and the IC50 [1] is reported as 0.46 µM.

Compound `C=CC(C)(C)C(=O)N1C(=O)C[C@H]1c1ccccc1` [Compound 38, (S)-1-(2,2-dimethylbut-3-enoyl)-4-phenylazetidin-2-one] has an EC50 (HT-29 cells; [2]) of 8.39 nM, an EC50 (HT-29 cells; [3]) of 1 to 1000 nM and an IC50 [1] of 0.0137 µM.

`CCC(C)(C)C(=O)N1CCCC1c1cc(F)cc(F)c1F` (stereo not shown) [Compound 10, 2,2-dimethyl-1-(2-(2,3,5-trifluorophenyl)pyrrolidin-1-yl)butan-1-one] gave an EC50 (HT-29 cells; [2]) of 9.88 nM, an EC50 (HT-29 cells; [3]) of 1 to 1000 nM and an IC50 [1] of 0.0225 µM.

With `CCC(C)(C)C(=O)N1C(=O)C[C@H]1c1ccccc1` [Compound 24, (S)-1-(2,2-dimethylbutanoyl)-4-phenylazetidin-2-one] the EC50 (HT-29 cells; [2]) was 7 nM, the EC50 (HT-29 cells; [3]) was 1 to 1000 nM and the IC50 [1] was 0.0198 µM.

Work on `CCC(C)(C)C(=O)N1C[C@@H](O)C[C@H]1c1ccccc1` [Compound 13, 1-((2S,4S)-4-hydroxy-2-phenylpyrrolidin-1-yl)-2,2-dimethylbutan-1-one] yielded an EC50 (HT-29 cells; [4]) of 1000 to 10000 nM, an EC50 (HT-29 cells; [2]) of 2620 nM and an inhibition at 2 µM [1] of 69%.

`O=C1C[C@@H](c2ccccc2)N1CC1CC1` [Compound 50, (S)-1-(cyclopropylmethyl)-4-phenylazetidin-2-one] was tested, and the EC50 (HT-29 cells; [4]) was 1000 to 100000 nM.

In the case of `CCC(C)(C)C(=O)N1CCC1c1ccccc1F` (stereo not shown) [Compound 67], the EC50 (HT-29 cells; [5]) is reported as 1000 to 1e+06 nM.

For `CCC(C)(C)C(=O)N1CCN(C(C)=O)CC1c1ccccc1` (stereo not shown) [Compound 18, 1-(4-acetyl-2-phenylpiperazin-1-yl)-2,2-dimethylbutan-1-one], the EC50 (HT-29 cells; [4]) was 1000 to 100000 nM.

Work on `CCC(C)(C)C(=O)N1CCC=C[C@H]1c1ccccc1` [Compound 74] yielded an EC50 (HT-29 cells; [5]) of 1000 to 1e+06 nM.

For `C=CC(C)(C)C(=O)N1CCC1c1cccs1` (stereo not shown) [Compound 62], the EC50 (HT-29 cells; [5]) was 1000 to 1e+06 nM.

For `CCC(C)(C)S(=O)(=O)N1CC[C@H]1c1ccccc1` [Compound 70], the EC50 (HT-29 cells; [5]) was 1000 to 1e+06 nM.

`O=C(C=CCl)N1C(=O)C[C@H]1c1ccccc1` [Compound 40, (S)-1-(3-chloroacryloyl)-4-phenylazetidin-2-one] gave an EC50 (HT-29 cells; [4]) of 1000 to 100000 nM.

Compound `C=CC(C)(C)C(=O)N1OCCC1c1ccccc1` (stereo not shown) [Compound 77] has an EC50 (HT-29 cells; [5]) of 1000 to 1e+06 nM.

Compound `O=C(N1CCCC1c1cccc(F)c1)C12CC3CC(CC(C3)C1)C2` (stereo not shown) [Compound 37, adamantan-1-yl(2-(3-fluorophenyl)pyrrolidin-1-yl)methanone] has an EC50 (HT-29 cells; [4]) of 1000 to 100000 nM.

With `CCC(C)(C)C(=O)N1C(=O)OC[C@H]1c1ccccc1` [Compound 23, (R)-3-(2,2-dimethylbutanoyl)-4-phenyloxazolidin-2-one] the EC50 (HT-29 cells; [3]) was 1 to 1000 nM.

Work on `CCC(C)(C)C(=O)N1CCOCC1c1ccccc1` (stereo not shown) [Compound 12, 2,2-dimethyl-1-(3-phenylmorpholino)butan-1-one] yielded an EC50 (HT-29 cells; [4]) of 1000 to 100000 nM.

Compound `CCC(C)(C)C(=O)N1C=CC=CC1c1ccccc1` (stereo not shown) [Compound 55] has an EC50 (HT-29 cells; [5]) of 1000 to 1e+06 nM.

Compound `CCC(C)(C)C(=O)N1COC[C@@H]1c1ccccc1` [Compound 7, (S)-2,2-dimethyl-1-(4-phenyloxazolidin-3-yl)butan-1-one] has an EC50 (HT-29 cells; [4]) of 1000 to 100000 nM.

For `C#CCN1C[C@@H](c2ccccc2)N(C(=O)C(C)(C)CC)C1=O` [Compound 30, (R)-3-(2,2-dimethylbutanoyl)-4-phenyl-1-(prop-2-yn-1-yl)imidazolidin-2-one], the EC50 (HT-29 cells; [4]) was 1000 to 10000 nM.

`C#CCN1C(=O)OC[C@H]1c1ccccc1` [Compound 52, (R)-4-phenyl-3-(prop-2-yn-1-yl)oxazolidin-2-one] was tested, and the EC50 (HT-29 cells; [4]) was 1000 to 100000 nM.

`CC(C)(C)[S+]([O-])N1CC[C@H]1c1ccccc1` (stereo partly drawn) [Compound S7, (2S)-1-(tert-butylsulfinyl)-2-phenylazetidine] showed an EC50 (HT-29 cells; [4]) of 1000 to 10000 nM.

`CCC(C)(C)C(=O)N1C(=O)N(C)C[C@H]1c1ccccc1` [Compound 31, (R)-3-(2,2-dimethylbutanoyl)-1-methyl-4-phenylimidazolidin-2-one] gave an EC50 (HT-29 cells; [2]) of 609 nM, an EC50 (HT-29 cells; [3]) of 1 to 1000 nM and an IC50 [1] of 1.06 µM.

Work on `CCC(C)(C)C(=O)N1NCCC1c1ccccc1` (stereo not shown) [Compound 21, 2,2-dimethyl-1-(5-phenylpyrazolidin-1-yl)butan-1-one] yielded an EC50 (HT-29 cells; [3]) of 1 to 1000 nM.

In the case of `CCC(C)(C)C(=O)N1CC=C[C@H]1c1ccccc1` [Compound 72], the EC50 (HT-29 cells; [5]) is reported as 1000 to 1e+06 nM.

`CCC(C)(C)C(=O)N1OCCC1c1ccccc1` (stereo not shown) [Compound 76] showed an EC50 (HT-29 cells; [5]) of 1000 to 1e+06 nM.

`CCC(C)(C)C(=O)N1C(=O)CCN1c1ccccc1` [Compound 33, 2-(2,2-dimethylbutanoyl)-1-phenylpyrazolidin-3-one] gave an EC50 (HT-29 cells; [4]) of 1000 to 100000 nM.

`CCC(C)(C)C(=O)N1CCCCC1c1ccccc1` (stereo not shown) [Compound 11, 2,2-dimethyl-1-(2-phenylpiperidin-1-yl)butan-1-one] showed an EC50 (HT-29 cells; [4]) of 1000 to 100000 nM.

Work on `CCC(C)(C)C(=O)N1CC[C@@H](O)[C@H]1c1ccccc1` [Compound S2, 1-((2R,3R)-3-hydroxy-2-phenylpyrrolidin-1-yl)-2,2-dimethylbutan-1-one] yielded an EC50 (HT-29 cells; [4]) of 1000 to 100000 nM.

`CCC(C)(C)C(=O)N1CC[C@H]1c1ccccc1` [Compound 3, (S)-2,2-dimethyl-1-(2-phenylazetidin-1-yl)butan-1-one] was tested, and the EC50 (HT-29 cells; [3]) was 1 to 1000 nM.

With `CCN1C(=O)C[C@H]1c1ccccc1` [Compound 48, (S)-1-ethyl-4-phenylazetidin-2-one] the EC50 (HT-29 cells; [4]) was 1000 to 100000 nM.

In the case of `CCC(C)(C)C(=O)N1C=CC=CC1C1CCCCC1` (stereo not shown) [Compound 56], the EC50 (HT-29 cells; [5]) is reported as 1000 to 1e+06 nM.
